Test results: patent US8664257B2, “Oxygen-substituted 3-heteroaroylamino-propionic acid derivatives and their use as pharmaceuticals” (Sanofi, priority 2010, dated 2014)

The molecules below were run against T1, Recombinant human cathepsin A (Homo sapiens, UniProt P10619) (assay: Cathepsin A inhibitory activity). Conditions: read-out: Activity (2): Cathepsin A inhibitory activity (IC50 class).
T1 construct: Recombinant human cathepsin A (residues 29-480, with a C-terminal 10-His tag); 10-His (C); purchased R&D Systems 1049-SE
T1 sequence (P10619 29-312 limits assumed): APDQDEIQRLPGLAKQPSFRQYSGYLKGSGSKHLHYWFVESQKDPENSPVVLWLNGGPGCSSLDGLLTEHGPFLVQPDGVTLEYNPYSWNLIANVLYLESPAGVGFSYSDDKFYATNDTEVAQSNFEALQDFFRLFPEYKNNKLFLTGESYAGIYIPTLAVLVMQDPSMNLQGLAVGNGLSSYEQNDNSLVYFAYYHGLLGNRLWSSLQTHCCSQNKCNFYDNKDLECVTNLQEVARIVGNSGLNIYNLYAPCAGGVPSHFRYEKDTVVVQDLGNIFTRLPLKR
T1 sequence (P10619 327-480 limits assumed): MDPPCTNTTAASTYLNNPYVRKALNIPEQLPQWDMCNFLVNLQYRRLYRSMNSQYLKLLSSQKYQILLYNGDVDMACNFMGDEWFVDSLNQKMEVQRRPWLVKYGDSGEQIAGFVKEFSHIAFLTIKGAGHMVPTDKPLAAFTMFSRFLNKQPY
Format: biochemical
Procedure, shortened: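 Human cathepsin A (res. 29-480, C-His10) pre-activated with cathepsin L (MES pH 6.0, DTT, 15 min, 37 °C; quenched with 10 μM E-64). Enzyme (833 ng/ml) preincubated 15 min RT with compound in MES pH 5.5/DTT, then 2 μM Bodipy FL-bradykinin for 15 min RT. Capillary electrophoresis product/substrate peak areas; IC50 from % inhibition.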

IC50 [nM]	Structure (SMILES)
100 to 1000	O=C(O)CC(NC(=O)c1cc(O)n(-c2ccccc2F)n1)c1ccc(-c2ccccc2F)cc1 (stereo not drawn) [Example 584]
100 to 1000	O=C(O)CC(NC(=O)c1cc(O)n(-c2ccccc2Cl)n1)c1ccc(-c2ccccc2F)cc1 (stereo not drawn) [Example 585, 3-{[1-(2-Chloro-phenyl)-5-hydroxy-1H-pyrazole-3-carbonyl]-amino}-3-(2′-fluoro-biphenyl-4-yl)-propionic acid]
100 to 1000	Cc1ccccc1[C@H](CC(=O)O)NC(=O)c1cc(O)n(-c2cc(F)cc(F)c2)n1 [Example 586]
1000 to 30000	O=C(O)CC(NC(=O)c1cc(O)n(-c2cc(F)cc(F)c2)n1)c1ccc(-c2ccc(F)cc2)cc1 (stereo not drawn) [Example 587]
100 to 1000	Cc1ccccc1[C@H](CC(=O)O)NC(=O)c1cc(O)n(-c2c(F)cccc2F)n1 [Example 588]
100 to 1000	Cc1ccccc1[C@H](CC(=O)O)NC(=O)c1cc(O)n(-c2cccc(Cl)c2F)n1 [Example 589]
100 to 1000	O=C(O)CC(NC(=O)c1cc(O)n(-c2cccc(Cl)c2F)n1)c1ccc(-c2ccc(F)cc2)cc1 (stereo not drawn) [Example 590]
100 to 1000	O=C(O)CC(NC(=O)c1cc(O)n(-c2ccccc2Cl)n1)c1ccc(-c2ccccc2Cl)cc1 (stereo not drawn) [Example 591]
100 to 1000	Cc1ccccc1C(CC(=O)O)NC(=O)c1nn(-c2ccccc2F)c(O)c1C (stereo not drawn) [Example 592]
100 to 1000	COc1c(Cl)c(C(=O)N[C@@H](CC(=O)O)c2ccccc2C)nn1-c1ccccc1F [Example 593]
< 100	COc1c(Br)c(C(=O)N[C@@H](CC(=O)O)c2ccccc2C)nn1-c1ccccc1F [Example 594]
< 100	COc1c(F)c(C(=O)N[C@@H](CC(=O)O)c2ccccc2C)nn1-c1ccccc1F [Example 595]
< 100	COc1cc(C(=O)N[C@@H](CC(=O)O)c2cccc(Cl)c2Cl)nn1-c1ccccc1 [Example 596]
100 to 1000	COc1cc(C(=O)NC(CC(=O)O)c2ccc(-c3ccccn3)cc2)nn1-c1ccccc1 (stereo not drawn) [Example 597, 3-[(5-Methoxy-1-phenyl-1H-pyrazole-3-carbonyl)-amino]-3-(4-pyridin-2-yl-phenyl)-propionic acid]
< 100	COc1cc(C(=O)NC(CC(=O)O)c2ccc(-c3ccccn3)cc2)nn1-c1ccccc1F (stereo not drawn) [Example 598]
< 100	Cc1ccccc1[C@H](CC(=O)O)NC(=O)c1cc(O)n(-c2cc(F)ccc2F)n1 [Example 599]
1000 to 30000	CS(=O)(=O)c1ccc(C(CC(=O)O)NC(=O)c2cc(O)n(-c3ccccc3)n2)cc1 (stereo not drawn) [Example 600]
100 to 1000	Cc1ccccc1[C@H](CC(=O)O)NC(=O)c1cc(O)n(-c2cccc(S(N)(=O)=O)c2)n1 [Example 601]
1000 to 30000	Cc1ccccc1[C@H](CC(=O)O)NC(=O)c1cc(O)n(-c2ccc(S(N)(=O)=O)cc2)n1 [Example 602]
1000 to 30000	CS(=O)(=O)c1ccc(C(CC(=O)O)NC(=O)c2cc(O)n(-c3ccccc3F)n2)cc1 (stereo not drawn) [Example 603, 3-{[1-(2-Fluoro-phenyl)-5-hydroxy-1H-pyrazole-3-carbonyl]-amino}-3-(4-methanesulfonyl-phenyl)-propionic acid]
1000 to 30000	COc1c(C)c(C(=O)NC(CC(=O)O)c2ccccc2C)nn1-c1ccccc1F (stereo not drawn) [Example 605]
100 to 1000	NS(=O)(=O)c1cccc(-n2nc(C(=O)NC(CC(=O)O)c3ccc(-c4ccc(F)cc4)cc3)cc2O)c1 (stereo not drawn) [Example 606]
1000 to 30000	Cc1ccccc1[C@H](CC(=O)O)NC(=O)c1cc(O)n(-c2ccccc2S(C)(=O)=O)n1 [Example 607]
100 to 1000	COc1cc(C(=O)N[C@@H](CC(=O)O)c2ccccc2C)nn1-c1ccccc1Cl [Example 608]
< 100	COc1cc(C(=O)N[C@@H](CC(=O)O)c2ccccc2C)nn1-c1cccc(F)c1 [Example 609]
< 100	COc1cc(C(=O)N[C@@H](CC(=O)O)c2ccccc2C)nn1-c1cc(F)ccc1F [Example 610]
100 to 1000	COc1cc(C(=O)N[C@@H](CC(=O)O)c2ccccc2C)nn1C(C)(C)C [Example 611]
